As a reminder, the IC50 is the point on the concentration scale where inhibition reaches its midpoint.

This assay addresses T1, P2X7 receptor (Homo sapiens, UniProt Q99572).
T1 construct: stably expressing the full length P2X7 receptor; expressed in transfected cells
T1 sequence (Q99572 1-595): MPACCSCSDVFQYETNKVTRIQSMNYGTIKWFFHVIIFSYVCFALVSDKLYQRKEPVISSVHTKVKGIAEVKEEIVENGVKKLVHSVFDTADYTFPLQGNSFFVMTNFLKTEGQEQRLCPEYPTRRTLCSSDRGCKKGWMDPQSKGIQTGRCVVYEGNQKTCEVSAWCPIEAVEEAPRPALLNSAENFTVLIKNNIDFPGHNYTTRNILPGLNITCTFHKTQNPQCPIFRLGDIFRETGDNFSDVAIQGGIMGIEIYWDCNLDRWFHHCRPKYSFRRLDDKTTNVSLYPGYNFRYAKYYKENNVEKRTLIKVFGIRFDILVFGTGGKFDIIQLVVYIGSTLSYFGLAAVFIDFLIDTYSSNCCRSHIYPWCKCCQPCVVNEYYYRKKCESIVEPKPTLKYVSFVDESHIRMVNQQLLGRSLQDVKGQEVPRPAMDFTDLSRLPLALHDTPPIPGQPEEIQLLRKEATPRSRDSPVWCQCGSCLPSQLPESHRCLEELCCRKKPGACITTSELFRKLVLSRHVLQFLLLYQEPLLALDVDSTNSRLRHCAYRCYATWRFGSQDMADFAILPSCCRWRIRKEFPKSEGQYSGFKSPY
Kind of assay: Ca++ flux assay (FLIPR) in P2X7-HEK-293 cell line stably expressing the full length P2X7 receptor, Bz-ATP activation. It counts as cell-based. As to conditions: P2X7-HEK-293 cells; agonist Bz-ATP; fluorescence as total area over 90 seconds; read-out: P2X7 Ca Flux hu IC50. A digest of the protocol: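 HEK-293 cells stably expressing full-length P2X7 were loaded with Ca++-sensitive dye for 1 h, with compound added during loading. Cells were stimulated with Bz-ATP on FLIPR. Fluorescence was integrated as total area over 90 s, and IC50 was taken as 50% inhibition of the maximal Ca++ response.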

Consider `Cc1c(-n2ccn3c(S(=O)(=O)Cc4cccc(F)c4Cl)nnc3c2=O)cccc1C(F)(F)F` [Compound 124, 3-(2-chloro-3-fluorobenzylsulfonyl)-7-(2-methyl-3-(trifluoromethyl)phenyl)-[1,2,4]triazolo[4,3-a]pyrazin-8(7H)-one], for which the IC50 was found to be 14.6 nM.

As to `Cc1c(-n2ccn3c(S(=O)(=O)Cc4ccsc4Br)nnc3c2=O)cccc1C(F)(F)F` [Compound 125, 3-((2-bromothiophen-3-yl)methylsulfonyl)-7-(2-methyl-3-(trifluoromethyl)phenyl)-[1,2,4]triazolo[4,3-a]pyrazin-8(7H)-one], the IC50 came to 15.5 nM.

As to `Cc1c(-n2ccn3c(S(=O)(=O)Cc4ccccc4-c4ccccc4)nnc3c2=O)cccc1C(F)(F)F` [Compound 126], the IC50 was 15.9 nM.

With `O=c1c2nnc(S(=O)(=O)Cc3ccccc3)n2ccn1-c1cccc(C(F)(F)F)c1Cl` [Compound 127, 3-(benzylsulfonyl)-7-(2-chloro-3-(trifluoromethyl)phenyl)-[1,2,4]triazolo[4,3-a]pyrazin-8(7H)-one], the IC50 was 16.3 nM.

With `Cc1c(Cl)cccc1-n1ccn2c(S(=O)(=O)Cc3ccccc3Br)nnc2c1=O` [Compound 128, 3-(2-bromobenzylsulfonyl)-7-(3-chloro-2-methylphenyl)-[1,2,4]triazolo[4,3-a]pyrazin-8(7H)-one], the IC50 was 16.9 nM.

For `Cc1c(-n2ccn3c(S(=O)(=O)Cc4ccccc4C(C)(C)C)nnc3c2=O)cccc1C(F)(F)F` [Compound 129, 3-(2-tert-butylbenzylsulfonyl)-7-(2-methyl-3-(trifluoromethyl)phenyl)-[1,2,4]triazolo[4,3-a]pyrazin-8(7H)-one], the IC50 stood at 17 nM.

For `Cc1c(Cl)cccc1-n1ccn2c(S(=O)(=O)Cc3cccc(F)c3Cl)nnc2c1=O` [Compound 130, 7-(3-chloro-2-methylphenyl)-3-(2-chloro-3-fluorobenzylsulfonyl)-[1,2,4]triazolo[4,3-a]pyrazin-8(7H)-one], the IC50 was 17.3 nM.

For `Cc1c(-n2ccn3c(S(=O)(=O)Cc4ccccc4Br)nnc3c2=O)cccc1C(F)(F)F` [Compound 131, 3-(2-bromobenzylsulfonyl)-7-(2-methyl-3-(trifluoromethyl)phenyl)-[1,2,4]triazolo[4,3-a]pyrazin-8(7H)-one], the IC50 was 17.7 nM.

Turning to `Cc1c(-n2ccn3c(S(=O)(=O)Cc4ccc(Cl)s4)nnc3c2=O)cccc1C(F)(F)F` [Compound 132, 3-((5-chlorothiophen-2-yl)methylsulfonyl)-7-(2-methyl-3-(trifluoromethyl)phenyl)-[1,2,4]triazolo[4,3-a]pyrazin-8(7H)-one], the IC50 is 17.9 nM.

Turning to `Cc1c(-n2ccn3c(S(=O)(=O)Cc4ccccc4I)nnc3c2=O)cccc1C(F)(F)F` [Compound 133, 3-(2-iodobenzylsulfonyl)-7-(2-methyl-3-(trifluoromethyl)phenyl)-[1,2,4]triazolo[4,3-a]pyrazin-8(7H)-one], the IC50 amounted to 21.4 nM.

Consider `Cc1c(Cl)cccc1-n1ccn2c(S(=O)(=O)Cc3ccccc3Cl)nnc2c1=O` [Compound 134, 7-(3-chloro-2-methylphenyl)-3-(2-chlorobenzylsulfonyl)-[1,2,4]triazolo[4,3-a]pyrazin-8(7H)-one], for which the IC50 came out at 23.2 nM.

For the compound `[2H]c1c([2H])c([2H])c(CS(=O)(=O)c2nnc3c(=O)n(-c4cccc(C(F)(F)F)c4C)ccn23)c([2H])c1[2H]` [Compound 135, deuterated-7-[2-methyl-3-(trifluoromethyl)phenyl]-3-[(phenyl-(d5)-methyl)sulfonyl]-1,2,4-triazolo[4,3-a]pyrazin-8(7H)-one], the IC50 was 23.3 nM.

Consider `Cc1c(Cl)cccc1-n1ccn2c(S(=O)(=O)Cc3ccccc3C(C)(C)C)nnc2c1=O` [Compound 136, 3-(2-tert-butylbenzylsulfonyl)-7-(3-chloro-2-methylphenyl)-[1,2,4]triazolo[4,3-a]pyrazin-8(7H)-one], for which the half-inhibitory concentration (IC50) came out at 26.9 nM.

Take `Cc1cccc(-c2ccccc2CS(=O)(=O)c2nnc3c(=O)n(-c4cccc(C(F)(F)F)c4C)ccn23)c1` [Compound 137]: the IC50 worked out at 30.4 nM.

In the case of `Cc1c(-n2ccn3c(S(=O)(=O)Cc4ccccc4-c4ccc(F)cc4)nnc3c2=O)cccc1C(F)(F)F` [Compound 138, 3-((4′-fluorobiphenyl-2-yl)methylsulfonyl)-7-(2-methyl-3-(trifluoromethyl)phenyl)-[1,2,4]triazolo[4,3-a]pyrazin-8(7H)-one], the IC50 came to 30.8 nM.

Turning to `Cc1c(Cl)cccc1-n1ccn2c(S(=O)(=O)Cc3ccccc3)nnc2c1=O` [Compound 139, 3-(benzylsulfonyl)-7-(3-chloro-2-methylphenyl)-[1,2,4]triazolo[4,3-a]pyrazin-8(7H)-one], the IC50 turned out to be 31.7 nM.

As to `[2H]c1c([2H])c([2H])c(C([2H])([2H])S(=O)(=O)c2nnc3c(=O)n(-c4cccc(Cl)c4C)ccn23)c([2H])c1[2H]` [Compound 140, deuterated-7-(3-chloro-2-methylphenyl)-3-[(phenyl-(d5)methyl-(d2))sulfonyl]-1,2,4-triazolo[4,3-a]pyrazin-8(7H)-one], the IC50 turned out to be 31.8 nM.

Consider `Cc1ccc(-c2ccccc2CS(=O)(=O)c2nnc3c(=O)n(-c4cccc(C(F)(F)F)c4C)ccn23)s1` [Compound 141], for which the IC50 was determined as 37 nM.

Take `[2H]c1c([2H])c([2H])c(CS(=O)(=O)c2nnc3c(=O)n(-c4cccc(Cl)c4C)ccn23)c([2H])c1[2H]` [Compound 142, deuterated-7-(3-chloro-2-methylphenyl)-3-[(phenyl-(d5)methyl)sulfonyl]-1,2,4-triazolo[4,3-a]pyrazin-8(7H)-one]: the IC50 is 39.5 nM.

In the case of `Cc1c(-n2ccn3c(S(=O)(=O)Cc4ccccc4-c4cccs4)nnc3c2=O)cccc1C(F)(F)F` [Compound 143, 7-(2-methyl-3-(trifluoromethyl)phenyl)-3-(2-(thiophen-2-yl)benzylsulfonyl)-[1,2,4]triazolo[4,3-a]pyrazin-8(7H)-one], the IC50 was 46.2 nM.

In the case of `O=c1c2nnc(S(=O)(=O)C(c3ccccc3)c3ccccc3)n2ccn1-c1cccc(C(F)(F)F)c1Cl` [Compound 144, 3-(benzhydrylsulfonyl)-7-(2-chloro-3-(trifluoromethyl)phenyl)-[1,2,4]triazolo[4,3-a]pyrazin-8(7H)-one], the IC50 came to 130 nM.

On to `O=c1c2nnc(S(=O)(=O)Cc3cccc4ccccc34)n2ccn1-c1cccc(C(F)(F)F)c1Cl` [Compound 145, 7-(2-chloro-3-(trifluoromethyl)phenyl)-3-(naphthalen-1-ylmethylsulfonyl)-[1,2,4]triazolo[4,3-a]pyrazin-8(7H)-one], for which the IC50 was found to be 47.9 nM.

Turning to `COc1cccc(-c2ccccc2CS(=O)(=O)c2nnc3c(=O)n(-c4cccc(C(F)(F)F)c4C)ccn23)c1` [Compound 146, 3-((3′-methoxybiphenyl-2-yl)methylsulfonyl)-7-(2-methyl-3-(trifluoromethyl)phenyl)-[1,2,4]triazolo[4,3-a]pyrazin-8(7H)-one], the IC50 came to 47 nM.

With `Cc1c(-n2ccn3c(S(=O)(=O)Cc4cscc4Br)nnc3c2=O)cccc1C(F)(F)F` [Compound 147, 3-((4-bromothiophen-3-yl)methylsulfonyl)-7-(2-methyl-3-(trifluoromethyl)phenyl)-[1,2,4]triazolo[4,3-a]pyrazin-8(7H)-one], the IC50 turned out to be 45.8 nM.

Regarding `Cc1c(Cl)cccc1-n1ccn2c(S(=O)(=O)Cc3ccc(F)cc3Cl)nnc2c1=O` [Compound 148, 7-(3-chloro-2-methylphenyl)-3-(2-chloro-4-fluorobenzylsulfonyl)-[1,2,4]triazolo[4,3-a]pyrazin-8(7H)-one], the IC50 is 47 nM.

`Cc1c(-n2ccn3c(S(=O)(=O)Cc4ccccc4-c4ccccc4)nnc3c2=O)cccc1C(F)(F)F` [Compound 149]: the IC50 is 48 nM.

Take `Cc1ccc(-c2ccccc2CS(=O)(=O)c2nnc3c(=O)n(-c4cccc(C(F)(F)F)c4C)ccn23)s1` [Compound 150]: the IC50 was found to be 48.9 nM.

Consider `Cc1c(Cl)cccc1-n1ccn2c(S(=O)(=O)Cc3ccccc3-c3cccs3)nnc2c1=O` [Compound 151, 7-(3-chloro-2-methylphenyl)-3-(2-(thiophen-2-yl)benzylsulfonyl)-[1,2,4]triazolo[4,3-a]pyrazin-8(7H)-one], for which the IC50 stood at 50.9 nM.

Turning to `Cc1cccc(-c2ccccc2CS(=O)(=O)c2nnc3c(=O)n(-c4cccc(C(F)(F)F)c4C)ccn23)c1` [Compound 152], the IC50 amounted to 51 nM.

As to `Cc1c(-n2ccn3c(S(=O)(=O)Cc4ccccc4Oc4ccccc4)nnc3c2=O)cccc1C(F)(F)F` [Compound 153, 7-(2-methyl-3-(trifluoromethyl)phenyl)-3-(2-phenoxybenzylsulfonyl)-[1,2,4]triazolo[4,3-a]pyrazin-8(7H)-one], the IC50 came to 51.5 nM.

As to `Cc1ccc(-c2ccccc2CS(=O)(=O)c2nnc3c(=O)n(-c4cccc(C(F)(F)F)c4C)ccn23)cc1` [Compound 154, 7-(2-methyl-3-(trifluoromethyl)phenyl)-3-((4′-methylbiphenyl-2-yl)methylsulfonyl)-[1,2,4]triazolo[4,3-a]pyrazin-8(7H)-one], the half-inhibitory concentration (IC50) stood at 51.9 nM.

The values are drawn from patent US20130196986A1 (priority 2010, published 2013).
